Data set [1] deals with HepG2 cells. As to the kind of experiment: Growth inhibition of HepG2 cells, sulforhodamin-B protein determination after six days of incubation. Type of data set: cell-based. As to conditions: Homo sapiens, 144 h, six days of substance incubation, sulforhodamin-B-method, read-out: IC50-value (concentration in which the cell growth was inhibited by 50%). Here is the method:
The tumor growth inhibiting activity of the substances was determined on human tumor cells in standardized in vitro test systems. In the screening tests, the substances gave IC50-values in a concentration range of 0.1 nM to 10 μM.
HepG2 cells plated at a 20,000 cell/ml in 12-well plastic dishes. Cultivation occured in Richters IMEM-ZO nutrient medium with 5% fetal calf serum (FCS) in a tissue culture incubator with a gas mixture of 5% CO2 and 95% air at a temperature of 37° C. One day after plating, the culture medium was aspirated from the cells and replaced by fresh medium which contained the respective concentrations of the test substances. For the individual concentrations and the controls without test substances, three-fold batches were done for each. Three days after the beginning of treatment, the medium was again renewed with the test compounds. After six days of substance incubation, the test was ended and the protein amount in the individual wells was determined with the sulforhodamin-B-method (according to P. Skehan et al.: New Colorimetric Cytotoxicity Assay for Anticancer-Drug Screening. J. Natl. Cancer Inst. 82: 1107–1112, 1990). The IC50-values (defined as that concentration in which the cell growth was inhibited by 50%) was taken from the dose-response curves and given as a comparative measurement for the activity of the test compounds.

In data set [2] the test system is freshly isolated lymphocytes from the spleen of a Swiss mouse. Description: Immunosuppressing activity: vitality of freshly isolated spleen lymphocytes by flow-through cytometry after 2 days. Type of data set: cell-based. The following applies: Lymphocyte, 48 h, 2 days incubation, flow-through cytometer, read-out: IC50 (percentage amount of vital cells). The source says:
Many anti-tumor agents have not only a cytotoxic effect on tumor cells, but also on the blood cell system. This leads to a weakening of the immune defense, which can, in turn, be specifically employed to suppress the rejection reaction after an organ transplantation for example. Therefore, a use of the main compounds, optionally in combination with other compounds effective for these indications is suitable in diseases such as psoriasis or autoimmune diseases. In order to test the possibility for a therapeutic use in illnesses of this type, the substance activity was tested on freshly isolated lymphocytes as follows:
The spleen of a Swiss mouse served as a lymphocyte source. The lymphocyte population was isolated from the spleen cell suspension over a ficoll gradient and taken up in IMEM-ZO culture medium with 0,1% dextran 70,000 and 2% fetal calf serum. […] Subsequently, 10,000 cells per each sample were measured on a flow-through cytometer and the percentage amount of vital cells in the population was determined. By means of the dose-response curves, IC50-values were calculated which were also employed in the following Tables for the characterization of the individual substances: […]

Our source for the melting point and IC50 values is patent publication US7241745B2, “Pyridyl alkene and pyridyl alkine acid amides as cytostatics and immunosupressives” (Astellas Pharma GmbH, priority 1996, dated 2007).

In general, melting point refers to the temperature, or range, at which the solid turns liquid. `O=C(C=CC=Cc1cccnc1)NCCCCC1CCN(C(c2ccccc2)c2ccccc2)CC1` [compound 70, N-[4-(1-diphenylmethyl-piperidin-4-yl)-butyl]-5-(pyridin-3-yl)-2,4-pentadienoic acid amide] came in with a melting point of 164 to 166 °C.
On the same count and under the same terms, the result for `O=C(C=Cc1cccnc1)NCCCCC1CCN(C2c3ccccc3CSc3ccccc32)CC1` (stereo not shown) [compound 136, N-{4-[1-(6,11-dihydro-dibenzo [b,e]thiepin-11-yl)-piperidin-4-yl]-butyl}-3-(pyridin-3-yl)-acrylamide] reads 89 to 91 °C; that for `O=C(C=Cc1cccnc1)NCCCCC1CCN(C(=O)C(c2ccccc2)c2ccccc2)CC1` [compound 150, N-[4-(1-diphenylacetyl-piperidin-4-yl)-butyl]-3-(pyridin-3-yl)-acrylamide], 161 °C.
Take `O=C(C=Cc1cccnc1)NCCCCC1CCN(C(=O)c2ccccc2)CC1` [compound 159, N-[4-(1-benzoylpiperidin-4-yl)-butyl]-3-(pyridin-3-yl)-acrylamide]: the figures for the IC50 in data set [1] and in data set [2] were 0.5 nM and 3 nM, respectively.
Turning to `O=C(C=Cc1cccnc1)NCCCCC1CCN(C(=O)Nc2cccc3ccccc23)CC1` [compound 195, N-{4-[1-(1-naphthylaminocarbonyl)-piperidin-4-yl]-butyl}-3-(pyridin-3-yl)-acrylamide], the melting point is 198 to 200 °C.
`O=C(C=Cc1cccnc1)NCCCCC1CCN(S(=O)(=O)c2ccc3ccccc3c2)CC1` [compound 219, N-{4-[1-(2-naphthyl-sulfonyl)-piperidin-4-yl]-butyl}-3-(pyridin-3-yl)-acrylamide] had a melting point of 85 to 87 °C.
